Legend:
SP9144 [1] = target: T1, SP9144 (Homo sapiens, UniProt Q9H3N8); experiment: FLIPR intracellular Ca2+ assay, HEK-293-EBNA cells transfected with pCR3.1-SP9144; assay type: cell-based; settings: for rank order of potency for activation of SP9144: transfected HEK-293-EBNA cells; for activation of SP9144 (change in intracellular Ca++, Fluo3 fluorescence): HEK-293-EBNA cells transfected with pCR3.1-SP9144, drugs 1×10^−4 M to 1×10^−9 M
T1 construct: expressed in transfected cells; host or cells: HEK-293-EBNA / HEK-293 cells, transient transfection with pCR3.1-SP9144
Method: (§1) 24 hours after transfection, cells were harvested and plated at 25,000 cells/well in clear bottom, black walled 96 well plates precoated with poly-D-lysine (Beckton-Dickenson) and cultured overnight in DMEM/10% FBS. For the assay, growth media was removed and replaced with 50 μl/well dye loading medium containing DMEM, 10% FBS, 20 mM HEPES pH 7.4, 2.5 mM probenecid (Sigma), […] Fluo3-AM (Sigma) (dissolved in 10% pluronic acid in DMSO). After 1 hr. at 37° C., the cell plates were washed 4 times with 250 μl Hanks Balanced Salt Solution (HBSS) lacking phenol red and containing 20 mM HEPES, 2.5 mM probenecid, and 0.1% BSA (wash buffer). A final volume of 100 μl/well of wash buffer was added to the plates, and the plates were placed into a Fluorescent Imaging Plate Reader (FLIPR, Molecular Devices) equilibrated to 37° C. […] Fluorescence was monitored once per second for 1 minute, and every 6 seconds for 2 minutes thereafter. After a 10 sec baseline measurement was established, drugs at 3× final concentration (1×10^−4 M to 1×10^−9 M) were added in a volume of 50 μl while the fluorescence continued to be monitored. Values extracted for data analysis represented the maximal fluorescence value minus the minimal fluorescence value detected following the drug addition. Drug stock solutions were initially dissolved in water (or DMSO) and diluted to 3× final concentration using wash buffer.

SP9144 [2] = target: T1, SP9144; experiment: [3H]histamine binding assay (saturation and competition), membranes of HEK-293 cells transfected with SP9144; settings: for rank order of potency for blocking [3H]-histamine binding: competition with 18 nM [3H]histamine, 70 μg membrane protein; for block of [3H]-histamine binding: at concentrations of 10 μM
Method: (§2) Membrane preparation: HEK-293 cells transfected with SP9144 as described above were harvested by incubating in 5 mM EDTA/phosphate-buffered saline followed by repeated pipetting. The cells were centrifuged 5 min at 1000×g. The EDTA/PBS was decanted and an equal volume of ice-cold 50 mM Tris-HCl, pH 7.5, was added and cells were broken up with a Polytron (PT10 tip, setting 5, 30 sec). Nuclei and unbroken cells were sedimented at 1000×g for 10 min and then the supernatant was centrifuged at 50,000×g for 10 min. The supernatant was decanted, the pellet was resuspended by Polytron, a sample was taken for protein assay (bicinchoninic acid, Pierce), and the tissue was again centrifuged at 50,000×g. Pellets were stored frozen at −20° C.
(§3) Samples were filtered on GF/B filters and washed thrice with 2 ml of cold Tris buffer. Filters were dried in a microwave oven, impregnated with Meltilex wax scintillant, and counted at 45% efficiency. […] Curves were fit to the data with Prism (GraphPad Software) nonlinear least-squares curve-fitting program and Ki values were derived from IC50 values according to Cheng and Prusoff (Cheng, Y. C., and Prusoff, W. H. (1973) Relationship between the inhibition constant (Ki) and the concentration of inhibitor which causes 50 per cent inhibition (IC50) of an enzymatic reaction. Biochem. Pharmacol. 22, 3099–3108).

[3] = system: untransfected HEK-293 cells; experiment: [3H]histamine binding to membranes from untransfected HEK-293 cells
Method: as §2, §3

mock transfected cells = system: mock transfected cells
Method: as §1

T1 sequence (Q9H3N8 whole entry): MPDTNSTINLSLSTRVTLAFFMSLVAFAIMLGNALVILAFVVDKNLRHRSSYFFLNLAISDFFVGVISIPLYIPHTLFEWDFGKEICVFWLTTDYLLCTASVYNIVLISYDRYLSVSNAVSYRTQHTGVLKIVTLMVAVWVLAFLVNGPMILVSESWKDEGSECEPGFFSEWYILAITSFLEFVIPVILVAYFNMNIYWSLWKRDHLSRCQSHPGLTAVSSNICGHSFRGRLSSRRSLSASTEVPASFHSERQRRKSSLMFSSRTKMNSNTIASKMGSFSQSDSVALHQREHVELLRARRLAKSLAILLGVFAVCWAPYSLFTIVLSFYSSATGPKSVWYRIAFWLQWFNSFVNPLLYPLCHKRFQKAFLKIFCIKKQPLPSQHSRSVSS

| SMILES | rank order of potency for activation of SP9144 (SP9144 [1]; FLIPR Ca++ assay) | activation of SP9144 (change in intracellular Ca++, Fluo3 fluorescence) (SP9144 [1]) | rank order of potency for blocking [3H]-histamine binding (SP9144 [2]) | other results |
| --- | --- | --- | --- | --- |
| C[C@@H](N)Cc1c[nH]cn1 [(R) α-methylhistamine] | Histamine>Nα-methylhistamine>(R) α-methylhistamine>>(S)α-methylhistamine (inactive) | able to activate SP9144 | imetit>clobenpropit>histamine>impromidine>Na-methylhistamine>burimamide>(R)-a-methylhistamine>thioperimide>>(S)-a-methylhistamine |  |
| C[C@H](N)Cc1c[nH]cn1 [(S)α-methylhistamine] | Histamine>Nα-methylhistamine>(R) α-methylhistamine>>(S)α-methylhistamine (inactive) | inactive | imetit>clobenpropit>histamine>impromidine>Na-methylhistamine>burimamide>(R)-a-methylhistamine>thioperimide>>(S)-a-methylhistamine |  |
| CNCCc1c[nH]cn1 [Nα-methylhistamine] | Histamine>Nα-methylhistamine>(R) α-methylhistamine>>(S)α-methylhistamine (inactive) | able to activate SP9144 | imetit>clobenpropit>histamine>impromidine>Na-methylhistamine>burimamide>(R)-a-methylhistamine>thioperimide>>(S)-a-methylhistamine |  |
| NCCc1c[nH]cn1 [[^3H]-Histamine] |  |  |  | specific binding of [3H]-histamine to membranes [3]: not to membranes from untransfected HEK-293 cells; specific binding of [3H]-histamine to membranes (SP9144 [2]; membranes from HEK-293 cells transfected with SP9144 DNA): bound specifically |
| CNC(=S)NCCCCc1cnc[nH]1 [buramimide] | clobenpropit>imetit>impromidine>buramimide | able to activate SP9144, albeit with reduced efficacy | imetit>clobenpropit>histamine>impromidine>Na-methylhistamine>burimamide>(R)-a-methylhistamine>thioperimide>>(S)-a-methylhistamine |  |
| CN(C)CCC(c1ccc(Cl)cc1)c1ccccn1 (centres unmarked) [chlorphenirimine] |  | completely inactive |  | block of [3H]-histamine binding (SP9144 [2]): not able to block |
| CN/C(=N/CCSCc1nc[nH]c1C)NC#N [cimetidine] |  | completely inactive |  | block of [3H]-histamine binding (SP9144 [2]): not able to block |
| NC(=NCc1ccc(Cl)cc1)SCCCc1cnc[nH]1 [clobenpropit] | clobenpropit>imetit>impromidine>buramimide | able to activate SP9144, albeit with reduced efficacy | imetit>clobenpropit>histamine>impromidine>Na-methylhistamine>burimamide>(R)-a-methylhistamine>thioperimide>>(S)-a-methylhistamine |  |
| NCCc1ccc(O)c(O)c1 [dopamine] |  | not by other biogenic amines |  |  |
| CNC[C@H](O)c1ccc(O)c(O)c1 [epinephrine] |  | not by other biogenic amines |  |  |
| NCCc1c[nH]cn1 [histamine] | Histamine>Nα-methylhistamine>(R) α-methylhistamine>>(S)α-methylhistamine (inactive) | specifically activated | imetit>clobenpropit>histamine>impromidine>Na-methylhistamine>burimamide>(R)-a-methylhistamine>thioperimide>>(S)-a-methylhistamine | activation by histamine in mock transfected cells (mock transfected cells): not observed |
| N=C(N)SCCc1cnc[nH]1 [imetit] | clobenpropit>imetit>impromidine>buramimide | able to activate SP9144, albeit with reduced efficacy | imetit>clobenpropit>histamine>impromidine>Na-methylhistamine>burimamide>(R)-a-methylhistamine>thioperimide>>(S)-a-methylhistamine |  |
| Cc1nc[nH]c1CSCCN=C(N)NCCCc1cnc[nH]1 [impromidine] | clobenpropit>imetit>impromidine>buramimide | able to activate SP9144, albeit with reduced efficacy | imetit>clobenpropit>histamine>impromidine>Na-methylhistamine>burimamide>(R)-a-methylhistamine>thioperimide>>(S)-a-methylhistamine |  |
| NC[C@H](O)c1ccc(O)c(O)c1 [nor-epinephrine] |  | not by other biogenic amines |  |  |
| NCCc1c[nH]c2ccc(O)cc12 [serotonin] |  | not by other biogenic amines |  |  |
| S=C(NC1CCCCC1)N1CCC(c2cnc[nH]2)CC1 [thioperimide] |  | no activation of SP9144 | imetit>clobenpropit>histamine>impromidine>Na-methylhistamine>burimamide>(R)-a-methylhistamine>thioperimide>>(S)-a-methylhistamine | block of the activation of SP9144 by (R)α-methylhistamine (SP9144 [1]; FLIPR Ca++ assay, antagonist mode): could be blocked in a dose dependent manner |

From patent US7166705B2 (Schering Corporation, priority 1999, dated 2007)
